In US11919965B2, “Methods of treating multiple myeloma with bispecific anti-BCMA x anti-CD3 antibodies” (Regeneron Pharmaceuticals, Inc., priority 2019, dated 2024):
Read-outs that look alike come from different tables or passages of the source.

Key:
[1] = system: BCMA-expressing MOLP-8 multiple myeloma tumors; assay: Xenogenic tumor model, MOLP-8 + human PBMC s.c. in NSG mice, dose response (Example 13); assay type: in vivo, mouse
Procedure: To determine the in vivo efficacy of anti-BCMA×anti-CD3 bispecific antibodies (Abs), a xenogenic tumor study was performed. Immunodeficient NOD.Cg-Prkdc^scidII2rg^tm1Wjl/SzJ (NSG) mice were subcutaneously implanted with a mixture of 5×10^6 BCMA-expressing MOLP-8 human multiple myeloma tumor cells and 1×10^6 human peripheral blood mononuclear cells (PBMC) isolated from a normal, healthy donor. […] The mice were administered these Abs twice per week for a total of seven doses, and tumor growth was assessed over 56 days. While the BCMA+ MOLP-8 tumors grew similarly in the vehicle- and CD3-binding control-treated mice, both BCMA×CD3 Abs that were tested prevented the growth of tumors in a dose-dependent manner in vivo.
(§1) Implantation and measurement of xenogenic tumors: NSG mice were subcutaneously implanted with a mixture of 5×10^6 BCMA-expressing MOLP-8 multiple myeloma cells and 1×10^6 PBMC derived from a normal, healthy donor. […] The mice were administered Abs twice per week for a total of seven doses. Tumor growth was measured by caliper twice per week for the duration of the experiment.
(§2) Calculation of xenogenic tumor growth and inhibition: In order to determine tumor volume by external caliper, the greatest longitudinal diameter (length in mm) and the greatest transverse diameter (width in mm) were determined. Tumor volumes based on caliper measurements were calculated by the formula: Volume (mm^3)=(length× width^2)/2.

[2] = system: BCMA-expressing NCI-H929 multiple myeloma tumors; assay: Xenogenic tumor model, NCI-H929 + human PBMC s.c. in NSG mice, dose response, treatment from implantation (Example 11); assay type: in vivo, mouse
Procedure: To determine the in vivo efficacy of anti-BCMA×anti-CD3 bispecific antibodies (Abs), a xenogenic tumor study was performed. Immunodeficient NOD.Cg-Prkdc^ScidII2rg^tm1Wjl/SzJ (NSG) mice were subcutaneously implanted with a mixture of 10×10^6 BCMA-expressing NCI-H929 human multiple myeloma tumor cells and 0.5×10^6 human peripheral blood mononuclear cells (PBMC) isolated from a normal, healthy donor. […] The mice were administered these Abs twice per week for a total of seven doses, and tumor growth was assessed over 60 days. While BCMA+NCI-H929 tumors grew similarly in the vehicle- and CD3-binding control-treated mice, both anti-BCMA×anti-CD3 Abs that were tested prevented the growth of tumors in a dose-dependent manner in vivo.
as §1, with “10×10^6” for “5×10^6”, “NCI-H929” for “MOLP-8”, “0.5×10^6” for “1×10^6”, “with calipers” for “by caliper”
as §2

[3] = system: primary cynomolgus monkey CD138+ plasma cells; assay: Autologous T cell-mediated killing of plasma cells and T cell activation (% CD25 upregulation); assay type: cell-based
Procedure: (§3) The specific killing of enriched CD138^+ human or cynomolgus monkey plasma cells by unstimulated autologous T cells was assessed by flow cytometry. Human or cynomolgus bone marrow aspirates and blood were provided within 24 hours of harvest. CD138^+ plasma cells were enriched from bone marrow by positive selection using the EasySep Human CD138^+ Positive Selection kit according to the manufacturer's instructions. PBMC from whole blood were isolated by density separation. PBMC were labeled with 1 μM of VYBRANT™ CFDA-SE fluorescent tracking dye. […] At the end of the culture, surviving CD138^+ plasma cells were analyzed by flow cytometry, utilizing fixable LIVE/DEAD dye and plasma cell specific cell surface markers. Percent viability was normalized to control condition (plasma cells in the presence of PBMC only). T cell activation was assessed by flow cytometry. Activation is reported as the percentage of CD2^+/CD4^+ or CD2^+/CD8^+/CD16^− T cells expressing CD25. Percent T cell activation was normalized to control condition (plasma cells in the presence of PBMC only).

[4] = system: primary human CD138+ plasma cells; assay: as above; assay type: cell-based; details: for EC50: read-out: T Cell Activation (% CD25 Upregulation) CD8+ T cells EC50
Procedure: as §3

## REGN5458: anti-BCMA×anti-CD3 bispecific antibody: mAb21581 BCMA heavy chain, mAb7221G CD3 heavy chain and common light chain; SEQ ID NOs 126, 127, 129
[1]; 0.04 mg/kg
  Average Tumor Size (mm3) ± SEM on Day 3: 9.3 ± 2.4 mm3
  Average Tumor Size (mm3) ± SEM on Day 7: 18.3 ± 5.0 mm3
  Average Tumor Size (mm3) ± SEM on Day 10: 73.9 ± 25.7 mm3
  Average Tumor Size (mm3) ± SEM on Day 14: 255.4 ± 79.7 mm3
  Average Tumor Size (mm3) ± SEM on Day 17: 494.3 ± 144.3 mm3
  Average Tumor Size (mm3) ± SEM on Day 21: 1373.0 ± 366.6 mm3
  Average Tumor Size (mm3) ± SEM on Day 23: 1882.3 ± 551.5 mm3
  Average Tumor Size (mm3) ± SEM on Day 28: 2542.5 ± 613.3 mm3
  Average Tumor Size (mm3) ± SEM on Day 31: 2906.1 ± 532.6 mm3
  Average Tumor Size (mm3) ± SEM on Day 35: 3538.0 ± 0.0 mm3
[1]; 0.4 mg/kg
  Average Tumor Size (mm3) ± SEM on Day 3: 13.5 ± 1.5 mm3
  Average Tumor Size (mm3) ± SEM on Day 7: 1.0 ± 1.0 mm3
  Average Tumor Size (mm3) ± SEM on Day 10: 0 ± 0 mm3
  Average Tumor Size (mm3) ± SEM on Day 14: 0 ± 0 mm3
  Average Tumor Size (mm3) ± SEM on Day 17: 1.7 ± 1.7 mm3
  Average Tumor Size (mm3) ± SEM on Day 21: 5.3 ± 5.3 mm3
  Average Tumor Size (mm3) ± SEM on Day 23: 9.7 ± 9.7 mm3
  Average Tumor Size (mm3) ± SEM on Day 28: 47.4 ± 47.4 mm3
  Average Tumor Size (mm3) ± SEM on Day 31: 104.7 ± 92.6 mm3
  Average Tumor Size (mm3) ± SEM on Day 35: 375.1 ± 307.5 mm3
  Average Tumor Size (mm3) ± SEM on Day 42: 968.8 ± 689.2 mm3
  Average Tumor Size (mm3) ± SEM on Day 56: 1742.4 ± 635.2 mm3
[1]; 4 mg/kg
  Average Tumor Size (mm3) ± SEM on Day 3: 12.5 ± 1.3 mm3
  Average Tumor Size (mm3) ± SEM on Day 7: 0 ± 0 mm3
  Average Tumor Size (mm3) ± SEM on Day 10: 0 ± 0 mm3
  Average Tumor Size (mm3) ± SEM on Day 14: 0 ± 0 mm3
  Average Tumor Size (mm3) ± SEM on Day 17: 14.5 ± 7.3 mm3
  Average Tumor Size (mm3) ± SEM on Day 21: 102.7 ± 66.2 mm3
  Average Tumor Size (mm3) ± SEM on Day 23: 193.3 ± 117.7 mm3
  Average Tumor Size (mm3) ± SEM on Day 28: 627.4 ± 318.1 mm3
  Average Tumor Size (mm3) ± SEM on Day 31: 1018.5 ± 498.3 mm3
  Average Tumor Size (mm3) ± SEM on Day 35: 1342.9 ± 629.6 mm3
  Average Tumor Size (mm3) ± SEM on Day 42: 2363.0 ± 890.2 mm3
  Average Tumor Size (mm3) ± SEM on Day 49: 1683.5 ± 1683.5 mm3
  Average Tumor Size (mm3) ± SEM on Day 56: 3108.1 ± 3108.1 mm3
[2]; 0.04 mg/kg
  Average Tumor Size (mm3) ± SEM on Day 7: 30.8 ± 5.5 mm3
  Average Tumor Size (mm3) ± SEM on Day 12: 71.5 ± 22.4 mm3
  Average Tumor Size (mm3) ± SEM on Day 15: 133.4 ± 50.9 mm3
  Average Tumor Size (mm3) ± SEM on Day 19: 413.7 ± 162.7 mm3
  Average Tumor Size (mm3) ± SEM on Day 22: 669.4 ± 248.5 mm3
  Average Tumor Size (mm3) ± SEM on Day 26: 1167.0 ± 431.7 mm3
  Average Tumor Size (mm3) ± SEM on Day 29: 1781.8 ± 620.7 mm3
[2]; 0.4 mg/kg
  Average Tumor Size (mm3) ± SEM on Day 4: 31.9 ± 2.0 mm3
  Average Tumor Size (mm3) ± SEM on Day 7: 11.3 ± 3.0 mm3
  Average Tumor Size (mm3) ± SEM on Day 15: 0 ± 0 mm3
  Average Tumor Size (mm3) ± SEM on Day 19: 0 ± 0 mm3
  Average Tumor Size (mm3) ± SEM on Day 22: 0 ± 0 mm3
  Average Tumor Size (mm3) ± SEM on Day 26: 0 ± 0 mm3
  Average Tumor Size (mm3) ± SEM on Day 29: 0 ± 0 mm3
  Average Tumor Size (mm3) ± SEM on Day 34: 0 ± 0 mm3
  Average Tumor Size (mm3) ± SEM on Day 39: 0 ± 0 mm3
  Average Tumor Size (mm3) ± SEM on Day 42: 0 ± 0 mm3
  Average Tumor Size (mm3) ± SEM on Day 46: 0 ± 0 mm3
  Average Tumor Size (mm3) ± SEM on Day 55: 0 ± 0 mm3
  Average Tumor Size (mm3) ± SEM on Day 60: 0 ± 0 mm3
[2]; 4 mg/kg
  Average Tumor Size (mm3) ± SEM on Day 4: 18.0 ± 1.2 mm3
  Average Tumor Size (mm3) ± SEM on Day 12: 0 ± 0 mm3
  Average Tumor Size (mm3) ± SEM on Day 15: 0 ± 0 mm3
  Average Tumor Size (mm3) ± SEM on Day 19: 0 ± 0 mm3
  Average Tumor Size (mm3) ± SEM on Day 22: 0 ± 0 mm3
  Average Tumor Size (mm3) ± SEM on Day 26: 0 ± 0 mm3
  Average Tumor Size (mm3) ± SEM on Day 29: 0 ± 0 mm3
  Average Tumor Size (mm3) ± SEM on Day 34: 0 ± 0 mm3
  Average Tumor Size (mm3) ± SEM on Day 39: 0 ± 0 mm3
  Average Tumor Size (mm3) ± SEM on Day 42: 0 ± 0 mm3
  Average Tumor Size (mm3) ± SEM on Day 46: 0 ± 0 mm3
  Average Tumor Size (mm3) ± SEM on Day 55: 0 ± 0 mm3
  Average Tumor Size (mm3) ± SEM on Day 60: 0 ± 0 mm3
[3]; Cynomolgus Monkey Donor 1 plasma cells, autologous T cells, maximum
  T Cell Activation (% CD25 Upregulation) CD8+ T cells % Activation: 12%
[3]; Cynomolgus Monkey Donor 1 plasma cells, autologous T cells, read-out: T Cell Activation (% CD25 Upregulation) CD8+ T cells EC50
  EC50: 22.4 nM
[3]; Cynomolgus Monkey Donor 2 plasma cells, autologous T cells, maximum
  T Cell Activation (% CD25 Upregulation) CD4+ T cells % Activation: 16%
[3]; Cynomolgus Monkey Donor 2 plasma cells, autologous T cells, read-out: T Cell Activation (% CD25 Upregulation) CD4+ T cells EC50
  EC50: ~18.1 nM
[3]; donor 1
  maximum percent T cell activation, CD8+ T cells: 12%
[3]; donor 1, read-out: EC50, CD4+ T cell activation
  EC50: 28.1 nM
[3]; donor 1, read-out: EC50, CD8+ T cell activation
  EC50: 22.4 nM
[3]; donor 2
  maximum percent T cell activation, CD4+ T cells: 16%
[3]; donor 2, read-out: EC50, CD4+ T cell activation
  EC50: 18.1 nM
[3]; donor 2, read-out: EC50, CD8+ T cell activation
  EC50: 76.7 nM
[4]; Human Donor 1 plasma cells, autologous primary human T cells
  EC50: 0.214 nM
[4]; Human Donor 2 plasma cells, autologous primary human T cells, maximum
  T Cell Activation (% CD25 Upregulation) CD8+ T cells % Activation: 36%
[4]; Human Donor 2 plasma cells, autologous primary human T cells
  EC50: 0.86 nM
[4]; donor 2
  maximum percent CD8+ T cell activation: 36%
